According to patent US7807712B2, “Oxy substituted chalcones as antihyperglycemic and antidyslipidemic agents” (priority 2004, dated 2010):

Legend:
[1] = tested on: sucrose loaded rats; assay: Sucrose loaded rat model (SLM), antihyperglycemic activity; format: in vivo, rat (Charles Foster/Wistar); conditions: for inhibition in vivo at 100 mg/kg: Rattus norvegicus, 2 h, 100 mg/kg oral, sucrose load 10.0 g/kg, AUC vs control, 30-120 min, read-out: % Fall in blood glucose levels SLM; for activity in SLM model: summary statement
Description: Male albino rats of Charles Foster/Wistar strain of average body weight 160±20 g were selected for this study. The blood glucose level of each animal was checked by glucometer using glucostrips (Boehringer Mannheim) after 16 h starvation. Animals showing blood glucose levels between 3.33 to 4.44 mM (60 to 80 mg/dl) were divided into groups of five to six animals in each. Animals of experimental group were administered suspension of the desired synthetic compound orally (made in 1.0% gum acacia) at a dose of 100-mg/kg-body weight. Animals of control group were given an equal amount of 1.0% gum acacia. A sucrose load (10.0 g/kg) was given to each animal orally exactly after 30 min post administration of the test sample/vehicle. Blood glucose profile of each rat was again determined at 30, 60, 90 and 120 min post administration of sucrose by glucometer. Food but not water was withheld from the cages during the course of experimentation. Quantitative glucose tolerance of each animal was calculated by Area Under Curve (AUC) method (Prism Software). Comparing the AUC of experimental and control groups determined the percentage antihyperglycemic activity. Statistical comparison was made by Dunnett's test.

[2] = tested on: db/db mice; assay: Antihyperglycemic activity in db/db mice; format: in vivo, mouse (C57BL/KsBom-db); conditions: for % Fall in blood glucose levels 6 days / % Fall in blood glucose levels 10 days: db/db mice; for % Fall in blood glucose levels 6 days: day 6 postprandial protocol; for % Fall in blood glucose levels 10 days: day 10 OGTT, glucose 3 gm/kg
Description: (§1) The db/db mouse is a well-characterized model of […]. The background for the db/db mouse is the C57BL/Ks strain. The major deficiency of the C57BL/KsBom-db mouse (db/db) is lack of a functional leptin receptor. This leads to defective leptin signaling and a complete lack of feedback from leptin. […] The db/db mouse develops NIDDM from around week 10. The disease is stable until week 20, where destruction of pancreatic β-cells can be recognized clinically as decreasing levels of plasma insulin and very severe hyperglycemia. The male mice are more diabetic than female and will normally die earlier. The advantage of using male mice for experimental purposes is that the fluctuations in plasma parameters are less than in the females where the estrogen cycle affects the clinical diabetes mellitus. The optimal age of db/db mice used for experiments will be from week 12 to 18 when they have developed NIDDM with diabetic dyslipidemia but still have functional β-cells in the pancreas. C57BL/KsBom-db mice 12-18 weeks, 40-50 g bred in the animal house of CDRI, Lucknow. 10 male mice were used in the experiments. The mice were housed in groups of 5 individuals in a room controlled for temperature (23±2° C.) and 12/12 hours light/dark cycle (lights on at 6.00 am). Body weight was measured daily from day 1 to day 10. All animals had free access to fresh water and to normal chow except on the days of the postprandial protocol day 6 and during the overnight fast before the OGTT on day 10. Blood glucose was checked every morning up till day 5. On day 6 postprandial protocol was employed, in this method blood glucose was checked at −0.30 min and 0 h. Test compounds were given to the treatment group whereas control group received only gum acacia (1.0%); the blood glucose was again checked at 1, 2, 3, 4 and 6 h post test compound treatment. Finally on day 10 an oral glucose tolerance test (OGTT) was performed after an overnight fasting. Blood glucose was measured at −0.30 min and test drugs were fed, blood glucose was again measured at 0.0 min post treatment, at this juncture glucose solution was given at a dose of 3 gm/kg to all the groups including control group; the profile of blood glucose was checked at 30 min, 60 min, 90 min and 120 min post glucose administration. Quantitative glucose tolerance of each animal was calculated by Area Under Curve (AUC) method (Prism Software). Comparing the AUC of experimental and control groups determined the percentage antihyperglycemic activity. Statistical comparison was made by Dunnett's test.

[3] = tested on: db/db mice; assay: Antidyslipidemic activity in db/db mice; format: in vivo, mouse (C57BL/KsBom-db); conditions: for % Fall in lipid levels HDL: serum HDL-cholesterol; for % Fall in lipid levels Chol.: serum cholesterol; for % Fall in lipid levels TG: serum triglycerides
Description: as §1
Cholesterol and triglycerides were estimated using the same procedures as given above.
HDL-Cholesterol was estimated using the kit provided by the Roche Diagnostics. Cholestest N HDL is a liquid reagent that directly measures the HDL-cholesterol concentration in serum by a new method that is based on the selective solubilising effect of proprietary detergent to the different lipoproteins. In the assay system, only HDL is solubilised by a special detergent; other lipoproteins are not disturbed. After HDL is selectively disrupted, HDL cholesterol is measured enzymatically (Gordon, T.; Casstelli, W. P.; Hjortland, M. C.; Kannel, W. B.; Dawber, T. R. High density lipoproteins as a protective factor against coronary heart disease, Am. J. Med. 1977, 62, 707-714.).

Row | SMILES | inhibition in vivo at 100 mg/kg [1] | % Fall in blood glucose levels 6 days [2] | % Fall in blood glucose levels 10 days [2] | lowering of blood glucose in db/db mice ([2]; summary statement) | % Fall in lipid levels HDL [3] | % Fall in lipid levels Chol. [3] | % Fall in lipid levels TG [3] | activity in SLM model [1]
1 | O=C1NC(=O)/C(=C\c2ccc(OCCCCCOc3cccc(C(=O)/C=C/c4ccc5c(c4)OCO5)c3)cc2)S1 [Compound 46, 3,4-Methylenedioxy-3′-{5-[4-(thiazolidin-2,4-dione-5-ylidinemethyl)-phenoxy]-pentyloxy}-chalcone] | 13.4% | 1.76% | 23.1% | significant lowering of blood glucose | 21.4% | 18.9% | 6.76% | 
2 | COc1ccc(/C=C/C(=O)c2ccc(OCC(O)CN3CCN(c4ccccc4)CC3)cc2)cc1OC (stereo not drawn) [Compound 18, 3,4-Dimethoxy-4′-[2-hydroxy-3-(4-phenylpiperazin-1-yl)-propoxy]-chalcone] | 15.4% | 29.9% | 18.9% |  | 11.8% | 1.36% | +5.20% | significant results
3 | CC(C)(C)NCC(O)COc1ccc(C(=O)/C=C/c2ccc3c(c2)OCO3)cc1 (stereo not drawn) [Compound 34, 4′-[^3-tert-Butylamino-2-hydroxy-propoxy]-3,4-methylenedioxy-chalcone] | 21.1% | NIL | 32.0% |  | +1.76% | 40.3% | +7.44% | significant results
